Biological target: T1, MMP9 mediated gelatinase activity (Rattus norvegicus, UniProt P50282)
T1 construct: from tissue; host or cells: frozen liver sections of female Lewis rats
Assay: In situ zymography of gelatinase activity in livers of SCW-induced rats dosed with Compound-α
Format: in vivo
Settings: for Intensity, Rat 1 / Intensity, Rat 2 / Intensity, Rat 3 / Intensity, Mean: SCW, liver; for Intensity, Mean: n=3
Description: In situ zymography provides an alternative approach to assess active MMP9 in tissues (Frederiks). Tissue sections are overlain with fluorescene-conjugated gelatin wherein the conjugation is sufficiently dense to cause the fluorescene to be dye-quenched (DQ). Proteolytic degradation of the DQ-gelatin releases the fluorescene from the quenching effect giving rise to bright green fluorescence at the site of degradation. Because in situ zymography requires the use of frozen sections, calcified tissues are problematic. However, an additional feature of the SCW arthritis model is the development of hepatic granulomatous disease (J Immunol; 1986; 137:2199-2209), and MMP9 reportedly plays a role in macrophage recruitment in the granulomas response to mycobacteria (Infect Immun; 2006; 74:6135-6144). Consequently, granulomatous livers from SCW-treated rats were assessed for active MMP9 by in situ zymography.
As described above, Female Lewis (LEW/N) rats, 5-6 weeks of age (80-100 g) were injected (i.p.) with saline or SCW PG-PS. On day 28, when the granulomatous response was well established, animals were sacrificed and livers were frozen in OCT cryo-sectioning medium and 10 μm sections were cut on a Cryome HM 500 M cryotome and mounted on glass microscope slides. Sections were air dried briefly. MMP9 was confirmed as the source of the gelatinase activity in the liver by treating liver sections with monoclonal antibodies directed against the active site of the two major gelatinases MMP9 and MMP2. Liver sections overlain with 50 μL of 100 μg/mL neutralizing mouse monoclonal antibodies directed against MMP9 (Calbiochem, clone 6-6B), or MMP2 (Millipore, clone CA-4001), or with PBS for 1 hr at room temperature. Tissues were rinsed once with PBS, blotted, and briefly air dried and then overlain with DQ-gelatin (Invitrogen) dissolved to 1 mg/mL in deionized water and then diluted 1:10 in 1% wt/vol low gelling point agarose type VII (Sigma) in PBS. The sections were covered with coverslips, incubated in the dark at room temperature for 20 min, and imaged on an Olympus IX80 inverted microscope fitted with fluorescence optics, using SlideBook™ imaging software (Intelligent Imaging Innovations, Inc., Philadelphia, Pa.; version 5.0). Fluorescence intensity was determined (Table 8). When compared to a saline-treated rat, gelatinase activity was abundantly expressed in granulomatous liver sections obtained from a rat with SCW arthritis.
Next, liver in situ zymography was used to assess the relative presence of active MMP9 in rats dosed with vehicle vs. Compound-α. Female Lewis (LEW/N) rats, 5-6 weeks of age (80-100 g) were injected (i.p.) with saline or SCW PG-PS. Commencing on day 25, randomized groups of rats (n=3 rats/group) received vehicle or 20 or 50 mg/kg Compound-α BID by oral gavage. Vehicle consisted of an aqueous mixture containing 2% (v:v) N-methylpyrrolidone, 5% (v:v) glycerine, and 20% (w:v) captisol. Treatment continued daily through the morning of day 28. Four hrs after the AM dose on day 28, rats were sacrificed and livers assessed for active MMP9 by in situ zymography (Table 9). Gelatinase activity was increased markedly in SCW-induced rats, but activity was reduced by approximately 80% in animals treated with 50 mg/kg Compound-α.

[1] = 20 mg/kg BID oral gavage Day 25-28
[2] = 50 mg/kg BID oral gavage Day 25-28

T1 sequence (P50282 20-708): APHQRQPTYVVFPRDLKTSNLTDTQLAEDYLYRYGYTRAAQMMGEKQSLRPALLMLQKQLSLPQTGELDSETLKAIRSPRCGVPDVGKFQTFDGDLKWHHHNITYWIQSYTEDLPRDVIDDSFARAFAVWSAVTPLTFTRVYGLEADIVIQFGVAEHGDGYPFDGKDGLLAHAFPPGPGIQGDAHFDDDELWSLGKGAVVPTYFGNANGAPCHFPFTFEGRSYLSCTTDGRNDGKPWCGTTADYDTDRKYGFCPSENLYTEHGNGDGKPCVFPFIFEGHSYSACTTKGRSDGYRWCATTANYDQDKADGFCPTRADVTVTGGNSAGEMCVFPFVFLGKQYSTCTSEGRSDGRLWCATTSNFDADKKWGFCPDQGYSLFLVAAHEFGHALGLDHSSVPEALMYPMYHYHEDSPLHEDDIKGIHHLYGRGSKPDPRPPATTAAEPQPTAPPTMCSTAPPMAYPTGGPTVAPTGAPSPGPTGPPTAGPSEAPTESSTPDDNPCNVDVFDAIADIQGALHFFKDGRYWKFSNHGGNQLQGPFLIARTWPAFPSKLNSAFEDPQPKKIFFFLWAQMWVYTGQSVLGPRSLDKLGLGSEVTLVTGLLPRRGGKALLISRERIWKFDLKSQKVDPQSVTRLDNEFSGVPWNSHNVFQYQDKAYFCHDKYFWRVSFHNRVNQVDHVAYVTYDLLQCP

Cc1nc(C)c(-c2csc(Nc3cc(S(N)(=O)=O)ccc3OC(C)C)n2)s1 [Compound α, 3-(2′,4′-Dimethyl-[4,5′]bithiazolyl-2-ylamino)-4-isopropoxy-benzenesulfonamide.HBr]
reduction of gelatinase activity in liver (50 mg/kg, SCW-induced rats, day 28): approximately 80%
Intensity, Rat 1 [1]: 43.0 RLU × 10^6
Intensity, Rat 2 [1]: 69.0 RLU × 10^6
Intensity, Rat 3 [1]: 53.7 RLU × 10^6
Intensity, Mean [1]: 55.2 RLU × 10^6
Intensity, Rat 1 [2]: 3.2 RLU × 10^6
Intensity, Rat 2 [2]: 25.6 RLU × 10^6
Intensity, Rat 3 [2]: 4.5 RLU × 10^6
Intensity, Mean [2]: 11.1 RLU × 10^6

Reference: patent US20120129811A1, “TRICYCLIC INHIBITORS OF PRO-MATRIX METALLOPROTEINASE ACTIVATION” (priority 2010, published 2012)
